Measured values: the supplement of paper PMC10307832

How the values were obtained:
Experiment in all cases: relative viability (nuclei count vs DMSO), 5 days (fraction); higher = more cells survive
AZ505 + Palbociclib = compound: C1CCC(CC1)N(CCNCCC2=C3C(=C(C=C2)O)NC(=O)CO3)C(=O)CCNCCC4=CC(=C(C=C4)Cl)Cl [AZ505] + CC(=O)c1c(C)c2cnc(Nc3ccc(N4CCNCC4)cn3)nc2n(C2CCCC2)c1=O [Palbociclib] (partner 0.5 µM)
Outline: (§1)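 Each reported value is a median over duplicate plates. It expresses relative viability: treated-well nuclei count divided by vehicle-well nuclei count. Lung cancer cell lines in 1536-well plates were dosed by pin tool a day after seeding, alone with one drug or with a fixed anchor-drug dose plus five library-drug doses (not always all listed) in √10 steps, and nuclei were counted after 5 days.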

AZ505 + Pemetrexed = compound: C1CCC(CC1)N(CCNCCC2=C3C(=C(C=C2)O)NC(=O)CO3)C(=O)CCNCCC4=CC(=C(C=C4)Cl)Cl [AZ505] + Nc1nc2[nH]cc(CCc3ccc(C(=O)N[C@@H](CCC(=O)O)C(=O)O)cc3)c2c(=O)[nH]1 [Pemetrexed] (partner 0.2 µM)
Outline: as §1

Dactolisib + Decitabine = compound: Cn1c(=O)n(-c2ccc(C(C)(C)C#N)cc2)c2c3cc(-c4cnc5ccccc5c4)ccc3ncc21 [Dactolisib] + Nc1ncn([C@H]2C[C@H](O)[C@@H](CO)O2)c(=O)n1 [Decitabine] (partner 2 µM)
Outline: as §1

Dactolisib + Alpelisib = compound: Cn1c(=O)n(-c2ccc(C(C)(C)C#N)cc2)c2c3cc(-c4cnc5ccccc5c4)ccc3ncc21 [Dactolisib] + Cc1nc(NC(=O)N2CCC[C@H]2C(N)=O)sc1-c1ccnc(C(C)(C)C(F)(F)F)c1 [Alpelisib] (partner 2 µM)
Outline: as §1

Cell Line | relative viability (AZ505 + Palbociclib; first compound 0.08 µM) | relative viability (AZ505 + Palbociclib; first compound 0.253 µM) | relative viability (AZ505 + Palbociclib; first compound 0.8 µM) | relative viability (AZ505 + Palbociclib; first compound 2.53 µM) | relative viability (AZ505 + Palbociclib; first compound 8 µM) | relative viability (AZ505 + Pemetrexed; first compound 0.08 µM) | relative viability (AZ505 + Pemetrexed; first compound 0.253 µM) | relative viability (AZ505 + Pemetrexed; first compound 0.8 µM) | relative viability (AZ505 + Pemetrexed; first compound 2.53 µM) | relative viability (AZ505 + Pemetrexed; first compound 8 µM) | relative viability (Dactolisib + Decitabine; first compound 0.002 µM) | relative viability (Dactolisib + Decitabine; first compound 0.006325 µM) | relative viability (Dactolisib + Decitabine; first compound 0.02 µM) | relative viability (Dactolisib + Decitabine; first compound 0.06325 µM) | relative viability (Dactolisib + Decitabine; first compound 0.2 µM) | relative viability (Dactolisib + Alpelisib; first compound 0.002 µM) | relative viability (Dactolisib + Alpelisib; first compound 0.006325 µM) | relative viability (Dactolisib + Alpelisib; first compound 0.02 µM) | relative viability (Dactolisib + Alpelisib; first compound 0.06325 µM) | relative viability (Dactolisib + Alpelisib; first compound 0.2 µM)
NCI-H1975 | 0.531 | 0.473 | 0.505 | 0.621 | 0.564 | 0.289 | 0.311 | 0.309 | 0.307 | 0.301 | 0.387 | 0.349 | 0.394 | 0.286 | 0.25 | 0.612 | 0.549 | 0.396 | 0.238 | 0.201
CAL-12T | 0.324 | 0.437 | 0.372 | 0.477 | 0.618 | 1.08 | 1.2 | 1.26 | 1.29 | 1.46 | – | – | – | – | – | 1.53 | 1.13 | 1.2 | 0.205 | 0.206
HCC-44 | 0.966 | 1.03 | 0.945 | 0.976 | 0.91 | 0.683 | 0.643 | 0.659 | 0.638 | 0.673 | 1.04 | 0.976 | 0.937 | 0.944 | 0.878 | 0.907 | 0.722 | 0.601 | 0.337 | 0.3
EKVX | – | 0.365 | 0.378 | 0.372 | 0.389 | – | 0.385 | 0.384 | 0.41 | 0.403 | 0.343 | 0.313 | 0.284 | 0.272 | 0.22 | 0.937 | 0.878 | 0.759 | 0.463 | 0.369
NCI-H1651 | 0.512 | 0.517 | 0.502 | 0.498 | 0.523 | 0.529 | 0.557 | 0.608 | 0.679 | 0.6 | 0.644 | 0.689 | 0.503 | 0.327 | 0.314 | 1.11 | 0.79 | 0.69 | 0.461 | 0.422
NCI-H1944 | 0.346 | 0.325 | 0.339 | 0.3 | 0.308 | 0.748 | 0.558 | 0.796 | 0.499 | 0.597 | 0.502 | 0.416 | 0.45 | 0.272 | 0.262 | 0.898 | 0.796 | 0.72 | 0.384 | 0.279
NCI-H1703 | – | – | – | – | – | – | – | – | – | – | – | – | – | – | – | 0.205 | 0.329 | 0.34 | 0.267 | 0.216
Calu-6 | – | – | – | – | – | – | – | – | – | – | – | – | – | – | – | 0.99 | 0.897 | 0.694 | 0.401 | 0.338
EBC-1 | – | – | – | – | – | – | – | – | – | – | – | – | – | – | – | 0.832 | 0.742 | 0.58 | 0.243 | 0.207
A-427 | 0.529 | 0.526 | 0.499 | 0.512 | 0.527 | 0.964 | 0.961 | 0.904 | 0.948 | 1.01 | 0.605 | 0.571 | 0.609 | 0.457 | 0.436 | 1.16 | 1.01 | 1.03 | 0.733 | 0.578
NCI-H2347 | 0.37 | 0.451 | 0.38 | 0.448 | 0.485 | 0.392 | 0.367 | 0.428 | 0.387 | 0.428 | 0.682 | 0.581 | 0.62 | 0.541 | 0.473 | 1.2 | 1.09 | 0.927 | 0.689 | 0.399
NCI-H1355 | 0.369 | 0.398 | 0.396 | 0.367 | 0.374 | 0.953 | 1 | 1.03 | 0.996 | 1 | 0.382 | 0.35 | 0.338 | 0.267 | 0.253 | 0.941 | 0.794 | 0.723 | 0.385 | 0.255
NCI-H358 | 0.122 | 0.156 | 0.153 | 0.139 | 0.151 | 0.177 | 0.227 | 0.158 | 0.179 | 0.184 | 0.303 | 0.204 | 0.202 | 0.141 | 0.127 | 0.951 | 0.786 | 0.718 | 0.3 | 0.18
PC-3 [JPC-3] | 0.527 | – | 0.521 | 0.566 | 0.568 | 0.97 | – | 1.18 | 1.09 | 1.27 | 0.87 | 0.783 | 0.878 | 0.786 | 0.655 | 1.15 | 1.02 | 0.977 | 0.78 | 0.641
NCI-H2228 | 0.554 | 0.723 | 0.69 | 0.768 | 0.918 | 0.334 | 0.353 | 0.366 | 0.356 | 0.283 | – | – | – | – | – | 0.786 | 0.461 | 0.421 | 0.198 | 0.234
HOP-62 | 0.403 | 0.535 | 0.461 | 0.475 | 0.52 | 0.325 | 0.443 | 0.327 | 0.393 | 0.379 | 0.287 | 0.238 | 0.215 | 0.275 | 0.22 | 1.19 | 1.09 | 0.876 | 0.468 | 0.323
HARA | 0.198 | 0.266 | 0.185 | 0.218 | 0.224 | 0.208 | – | 0.213 | 0.24 | 0.228 | 0.708 | 0.558 | 0.634 | 0.623 | 0.356 | 1.15 | 0.78 | 0.809 | 0.594 | 0.206
NCI-H838 | 0.236 | 0.191 | 0.195 | 0.216 | 0.195 | 0.251 | 0.253 | 0.252 | 0.246 | 0.221 | 0.603 | 0.446 | 0.4 | 0.289 | 0.286 | 0.926 | 0.704 | 0.699 | 0.287 | 0.283
